Results as given in ChEMBL document CHEMBL1137211, “Inhibitors of phenylethanolamine N-methyltransferase that are predicted to penetrate the blood-brain barrier: design, synthesis, and evaluation of 3-fluoromethyl-7-(N-substituted aminosulfonyl)-1,2,3,4-tetrahydroisoquinolines that possess low affinity toward the alpha2-adrenoceptor” (J Med Chem, 2004).

Organism: Homo sapiens
Assay: Ratio of Ki for alpha-2-adrenoceptor to that of PNMT was determined

Selectivity | SMILES
> 1.1 | O=S(=O)(Nc1cccc(Cl)c1)c1ccc2c(c1)CNC(CF)C2 (stereo not given)
> 4 | O=[N+]([O-])c1cccc(NS(=O)(=O)c2ccc3c(c2)CNC(CF)C3)c1 (stereo not given)

Target: T1, Adrenergic receptor alpha-2 (Rattus norvegicus, UniProt P22086+P19328+P22909)
T1 sequence (P22086 whole entry): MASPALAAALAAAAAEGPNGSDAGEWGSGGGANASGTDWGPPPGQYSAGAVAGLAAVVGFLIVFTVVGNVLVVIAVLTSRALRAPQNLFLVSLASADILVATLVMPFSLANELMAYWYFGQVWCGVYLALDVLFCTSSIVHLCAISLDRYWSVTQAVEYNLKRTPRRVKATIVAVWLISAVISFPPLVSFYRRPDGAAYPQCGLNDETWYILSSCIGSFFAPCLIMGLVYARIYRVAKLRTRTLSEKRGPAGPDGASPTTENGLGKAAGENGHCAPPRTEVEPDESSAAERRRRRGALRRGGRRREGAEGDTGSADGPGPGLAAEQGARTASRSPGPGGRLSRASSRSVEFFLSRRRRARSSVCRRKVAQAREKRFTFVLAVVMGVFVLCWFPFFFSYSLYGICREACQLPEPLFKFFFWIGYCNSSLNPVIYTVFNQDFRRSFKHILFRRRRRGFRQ
T1 sequence (P19328 whole entry): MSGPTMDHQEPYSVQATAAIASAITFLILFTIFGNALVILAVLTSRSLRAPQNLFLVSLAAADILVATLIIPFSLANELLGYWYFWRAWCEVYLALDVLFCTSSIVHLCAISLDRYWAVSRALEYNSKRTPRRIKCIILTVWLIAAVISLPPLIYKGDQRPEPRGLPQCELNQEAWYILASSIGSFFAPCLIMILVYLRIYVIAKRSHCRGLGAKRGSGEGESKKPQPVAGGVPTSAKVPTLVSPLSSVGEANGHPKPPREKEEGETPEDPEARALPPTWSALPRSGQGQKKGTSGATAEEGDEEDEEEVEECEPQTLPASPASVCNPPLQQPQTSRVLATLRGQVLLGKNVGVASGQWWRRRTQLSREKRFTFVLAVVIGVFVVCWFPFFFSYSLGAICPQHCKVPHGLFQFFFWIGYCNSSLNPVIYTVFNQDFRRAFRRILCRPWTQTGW
T1 sequence (P22909 whole entry): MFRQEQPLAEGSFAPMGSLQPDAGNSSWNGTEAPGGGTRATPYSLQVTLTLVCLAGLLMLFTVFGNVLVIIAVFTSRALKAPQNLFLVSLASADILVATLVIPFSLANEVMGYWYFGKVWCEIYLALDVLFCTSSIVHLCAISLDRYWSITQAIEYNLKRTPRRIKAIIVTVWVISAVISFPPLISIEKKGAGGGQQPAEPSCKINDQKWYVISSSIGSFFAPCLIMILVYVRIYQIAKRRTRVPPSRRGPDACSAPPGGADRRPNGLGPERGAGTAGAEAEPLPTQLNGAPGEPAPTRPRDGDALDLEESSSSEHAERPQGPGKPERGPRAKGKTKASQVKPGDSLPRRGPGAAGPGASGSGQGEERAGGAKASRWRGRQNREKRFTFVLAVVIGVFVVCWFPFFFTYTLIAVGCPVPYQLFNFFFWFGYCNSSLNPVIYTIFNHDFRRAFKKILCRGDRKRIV
Assay: Inhibition of [3H]clonidine binding to rat Alpha2 adrenoceptor
Format: protein assay

SMILES | Ki [µM]
CCOCCNS(=O)(=O)c1ccc2c(c1)CNC(CF)C2 (stereo not given) | 440
O=S(=O)(NC1CCc2ccccc2C1)c1ccc2c(c1)CNC(CF)C2 (stereo not given) | 1.3
O=S(=O)(Nc1ccc(Cl)cc1)c1ccc2c(c1)CNC(CF)C2 (stereo not given) | 140
O=S(=O)(NC12CC3CC(CC(C3)C1)C2)c1ccc2c(c1)CNC(CF)C2 (stereo not given) | 100
CCNS(=O)(=O)c1ccc2c(c1)CNC(CF)C2 (stereo not given) | 550
O=S(=O)(NCCc1ccccc1)c1ccc2c(c1)CNC(CF)C2 (stereo not given) | 58
COCCCNS(=O)(=O)c1ccc2c(c1)CNC(CF)C2 (stereo not given) | 750
O=S(=O)(c1ccc2c(c1)CNC(CF)C2)N1CCOCC1 (stereo not given) | 2100
CCOCCCNS(=O)(=O)c1ccc2c(c1)CNC(CF)C2 (stereo not given) | 350
Clc1ccc2c(c1Cl)CNCC2 | 0.02
O=[N+]([O-])c1cccc(NS(=O)(=O)c2ccc3c(c2)CNC(CF)C3)c1 (stereo not given) | > 1000
O=S(=O)(c1ccc2c(c1)CNC(CF)C2)N1CCSCC1 (stereo not given) | 190
O=S(=O)(NCC(F)(F)F)c1ccc2c(c1)CNC(CF)C2 (stereo not given) | 1200
CC(C)NS(=O)(=O)c1ccc2c(c1)CNC(CF)C2 (stereo not given) | 580
O=S(=O)(Nc1ccc(F)cc1)c1ccc2c(c1)CNC(CF)C2 (stereo not given) | 86
O=S(=O)(Nc1ccc2ccccc2c1)c1ccc2c(c1)CNC(CF)C2 (stereo not given) | 12
O=S(=O)(NCCC(F)(F)F)c1ccc2c(c1)CNC(CF)C2 (stereo not given) | 660

Continued, values first:

Ki [µM] | SMILES
> 1000 | O=S(=O)(Nc1cccc(Cl)c1)c1ccc2c(c1)CNC(CF)C2 (stereo not given)
820 | O=S(=O)(c1ccc2c(c1)CNC(CF)C2)N1CCCCC1 (stereo not given)
610 | CCCNS(=O)(=O)c1ccc2c(c1)CNC(CF)C2 (stereo not given)
350 | O=S(=O)(NCCCC(F)(F)F)c1ccc2c(c1)CNC(CF)C2 (stereo not given)
280 | O=S(=O)(Nc1ccc(O)cc1)c1ccc2c(c1)CNC(CF)C2 (stereo not given)
> 1000 | O=[N+]([O-])c1ccc(NS(=O)(=O)c2ccc3c(c2)CNC(CF)C3)cc1 (stereo not given)
430 | COCCNS(=O)(=O)c1ccc2c(c1)CNC(CF)C2 (stereo not given)
6.8 | O=S(=O)(NCCCCc1ccccc1)c1ccc2c(c1)CNC(CF)C2 (stereo not given)
260 | CCCCNS(=O)(=O)c1ccc2c(c1)CNC(CF)C2 (stereo not given)

Target: T2, Phenylethanolamine N-methyltransferase (Homo sapiens, UniProt P11086)
T2 sequence (P11086 whole entry): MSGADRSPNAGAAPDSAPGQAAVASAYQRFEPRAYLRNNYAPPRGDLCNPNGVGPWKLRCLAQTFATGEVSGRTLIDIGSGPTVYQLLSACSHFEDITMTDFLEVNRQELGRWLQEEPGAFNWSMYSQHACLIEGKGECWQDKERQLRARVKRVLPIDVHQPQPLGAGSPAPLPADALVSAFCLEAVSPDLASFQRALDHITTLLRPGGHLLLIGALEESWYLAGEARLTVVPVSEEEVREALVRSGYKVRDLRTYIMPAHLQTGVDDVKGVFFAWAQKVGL
Assay: not given

Ki [µM] | SMILES
890 | O=S(=O)(Nc1cccc(Cl)c1)c1ccc2c(c1)CNC(CF)C2 (stereo not given)
250 | O=[N+]([O-])c1cccc(NS(=O)(=O)c2ccc3c(c2)CNC(CF)C3)c1 (stereo not given)
